This series can be described thus: Solubility in C1-C3 alcohols. The conditions noted are these: methanol, ethanol, propan-1-ol, propan-2-ol; room temperature. Format: physicochemical. On the procedure:
Ondansetron Form B may be prepared by crystallizing ondansetron from a solution in a C1-C3 alcohol, in particular, methanol, ethanol, propan-1-ol, propan-2-ol and mixtures thereof. Ondansetron is dissolved in the C1-C3 alcohol, preferably in an amount sufficient to produce from about a 50 mM to about a 300 mM solution, more preferably from about an 85 mM to about a 150 mM solution. […] Consequently, it may be necessary to heat the mixture in order to fully dissolve it. Preferably, the mixture is refluxed until the mixture becomes a clear solution. The solution is preferably free of solid ondansetron that could potentially seed the mixture causing precipitation of ondansetron in a crystalline form other than Form B or co-crystallization of Form B with another form. Preferably, the Form B obtained by crystallization from the alcohol solution contains less than or equal to about 5% other crystalline forms of ondansetron, more preferably Form B contains less than or equal to about 1% other crystalline forms of ondansetron.

SMILES strings stand for the structures.

Take `Cc1nccn1CC1CCc2c(c3ccccc3n2C)C1=O` (racemic) [Ondansetron, (±) 1,2,3,9-Tetrahydro-9-methyl-3-[2-methyl-1H-imidazol-1-yl)methyl]-4H-carbazol-4-one]: the “solubility in C1-C3 alcohols” value was “limited solubility”.
